Results as given in paper PMC6465099 (Clinical Pharmacology and Therapeutics, 2018).

Tests used:
[1] = Clinical study: renal injury biomarkers; type: in vivo, human
[2] = Clinical crossover study: iohexol clearance; type: in vivo, human; settings: for clearance: human, plasma, intravenous
[3] = patients with cancer and healthy subjects; cited from earlier work
[4] = Clinical study: serum creatinine and estimated GFR after abemaciclib; type: in vivo, human
[5] = target: T1, OCT2 (Homo sapiens, UniProt O15244); experiment: Inhibition of OCT2-mediated; type: cell-based; settings: sum of unbound Cmax/IC50 of abemaciclib, M2 and M20
T1 sequence (O15244 1-555): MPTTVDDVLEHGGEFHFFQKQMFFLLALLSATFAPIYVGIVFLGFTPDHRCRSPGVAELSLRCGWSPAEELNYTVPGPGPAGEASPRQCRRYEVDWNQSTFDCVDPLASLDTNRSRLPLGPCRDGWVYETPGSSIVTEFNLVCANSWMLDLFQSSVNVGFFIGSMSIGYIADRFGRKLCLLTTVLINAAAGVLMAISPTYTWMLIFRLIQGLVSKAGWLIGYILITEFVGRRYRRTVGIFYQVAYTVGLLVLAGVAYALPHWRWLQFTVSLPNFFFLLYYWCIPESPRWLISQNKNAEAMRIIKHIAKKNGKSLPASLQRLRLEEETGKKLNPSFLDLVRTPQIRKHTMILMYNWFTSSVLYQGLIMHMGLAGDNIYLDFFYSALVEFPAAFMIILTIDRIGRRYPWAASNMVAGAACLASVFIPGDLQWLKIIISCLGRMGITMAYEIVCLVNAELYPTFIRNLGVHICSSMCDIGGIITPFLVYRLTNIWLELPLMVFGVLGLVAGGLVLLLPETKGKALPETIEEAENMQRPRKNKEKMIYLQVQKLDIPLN

[6] = target: MATE2-K (Homo sapiens, UniProt Q86VL8); experiment: Inhibition of MATE2-K-mediated; type: cell-based; settings: sum of unbound Cmax/IC50 of abemaciclib, M2 and M20
MATE2-K, sequence (Q86VL8 1-566 isoform Q86VL8-3): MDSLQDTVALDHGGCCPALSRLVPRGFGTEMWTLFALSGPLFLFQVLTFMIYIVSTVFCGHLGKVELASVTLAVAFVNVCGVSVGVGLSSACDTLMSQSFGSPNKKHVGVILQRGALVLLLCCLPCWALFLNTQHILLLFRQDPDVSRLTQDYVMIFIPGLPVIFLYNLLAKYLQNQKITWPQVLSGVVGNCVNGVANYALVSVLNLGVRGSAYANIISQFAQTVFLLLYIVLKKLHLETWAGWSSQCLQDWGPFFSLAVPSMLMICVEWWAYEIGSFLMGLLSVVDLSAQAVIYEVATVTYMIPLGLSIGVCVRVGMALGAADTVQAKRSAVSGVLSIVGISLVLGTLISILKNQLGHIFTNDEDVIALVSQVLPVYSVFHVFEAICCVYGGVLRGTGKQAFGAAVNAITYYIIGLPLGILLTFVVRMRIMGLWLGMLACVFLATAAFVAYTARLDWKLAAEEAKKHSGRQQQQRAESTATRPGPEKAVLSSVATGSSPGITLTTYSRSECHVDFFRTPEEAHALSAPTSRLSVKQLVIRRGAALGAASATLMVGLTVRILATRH

[7] = target: T2, MATE1 (Homo sapiens, UniProt Q96FL8); experiment: Inhibition of MATE1-mediated; type: cell-based; settings: sum of unbound Cmax/IC50 of abemaciclib, M2 and M20
T2 sequence (Q96FL8 1-570): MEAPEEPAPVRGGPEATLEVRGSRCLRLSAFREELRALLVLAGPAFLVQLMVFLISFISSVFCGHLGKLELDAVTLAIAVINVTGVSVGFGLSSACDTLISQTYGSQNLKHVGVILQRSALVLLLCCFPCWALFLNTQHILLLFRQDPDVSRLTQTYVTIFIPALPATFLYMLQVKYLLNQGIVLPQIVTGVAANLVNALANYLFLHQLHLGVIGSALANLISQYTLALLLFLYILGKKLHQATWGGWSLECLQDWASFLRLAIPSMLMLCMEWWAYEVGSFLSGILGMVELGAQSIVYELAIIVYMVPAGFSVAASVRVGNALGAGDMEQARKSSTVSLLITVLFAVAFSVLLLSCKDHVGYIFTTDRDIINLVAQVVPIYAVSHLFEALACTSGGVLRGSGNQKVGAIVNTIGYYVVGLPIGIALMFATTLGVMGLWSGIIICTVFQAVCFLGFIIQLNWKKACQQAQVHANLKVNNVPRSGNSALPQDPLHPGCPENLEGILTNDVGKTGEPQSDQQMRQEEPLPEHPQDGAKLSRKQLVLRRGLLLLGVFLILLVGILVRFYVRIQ

Row | Effect of coadministration on iohexol PK ([2]; 400 mg abemaciclib with iohexol) | eGFR (CKD-EPI equation using SCr) ([4]; abemaciclib in combination with iohexol) | eGFR (CKD-EPI equation using SCr) ([4]; abemaciclib in combination with metformin) | eGFR calculated using serum cystatin-C ([4]; abemaciclib vs. placebo periods) | Mean increase in SCr concentration ([4]; between 10 and 12 hours postdose, 400 mg abemaciclib, healthy subjects) | Reversible increase in SCr expected in patients ([4]; patients dosed with abemaciclib, suggested by the findings) | Time of peak SCr elevation ([4]; post abemaciclib dose) | Combined DDI index, OCT2 [5] | Combined DDI index, MATE2-K [6] | Combined DDI index, MATE1 [7] | clearance [2] | clearance ([2]; 3235 mg) | SMILES | Trends in serum cystatin-C or NGAL indicative of renal injury ([1]; abemaciclib with either metformin or iohexol) | Creatinine-normalized urinary concentrations of NGAL and KIM-1 ([1]; following abemaciclib dosing) | Reversible increase in serum creatinine over baseline [3]
1 | did not affect | 53.6 mL/minute/1.73 m^2 | 57.2 mL/minute/1.73 m^2 | did not change | 35.7 to 44.6 µmol/L | 10–40% | 12 h | 0.03 | 0.06 | 0.13 |  |  | CCN1CCN(Cc2ccc(Nc3ncc(F)c(-c4cc(F)c5nc(C)n(C(C)C)c5c4)n3)nc2)CC1 [Abemaciclib] | no trends | No notable change | 15–40%
2 |  |  |  |  |  |  |  |  |  |  | 85.6 mL/min | 89 mL/min | CC(=O)N(CC(O)CO)c1c(I)c(C(=O)NCC(O)CO)c(I)c(C(=O)NCC(O)CO)c1I (stereo not drawn) [iohexol] |  |  | 
